Data taken from BindingDB's records for patent US20240067645 (Lg Chem, 2024).

The molecules below were run against Diacylglycerol kinase alpha (Homo sapiens, UniProt P23743) (assay: Inhibitory Effect Against DGKalpha Enzyme).
Experimental: First, 3×OAG (3 mM)/ATP (0.45 mM) substrate solution was prepared from 1× substrate assay buffer (40 mM MOPS (pH 7.2), 20 mM MgCl2, 1 mM DTT, 0.4 mM CaCl2), 3 mM sodium deoxycholate, 100 mM NaCl, 0.1 mg/mL BSA, 0.12% NP-40), and vortexed thoroughly for 3 minutes to induce detergent-lipid micelle formation. Then, 3×DGKα (7.5 nM) enzyme solution was prepared from 2× enzyme assay buffer (80 mM MOPS (pH 7.2), 2 mM DTT, 200 mM NaCl, 0.2 mg/mL BSA) and vortexed for a short time. After preparing the above two solutions, a half-area opaque 96-well assay plate was prepared, and 10 μL of 3× diluted compound solution (30 μM to 0 μM) was transferred to each well. Next, 10 μL of 3×DGK enzyme solution was transferred to the same plate, mixed by pipetting, and then 10 μL of 3×OAG/ATP substrate solution was added to the assay plate and mixed well. The plate was incubated at room temperature for 20 minutes for the enzyme reaction. Next, 15 μL of ADP-Glo reagent was added to each well and mixed by pipetting, followed by incubating the plate at room temperature for 40 minutes to deplete the remaining ATPs. After this step, 30 μL of kinase detection reagent was added and mixed, and the plate was incubated at room temperature for an additional 20 minutes and luminescence was measured by Envision to calculate the IC50 value of each compound.

Diacylglycerol kinase alpha, sequence (P23743 whole entry): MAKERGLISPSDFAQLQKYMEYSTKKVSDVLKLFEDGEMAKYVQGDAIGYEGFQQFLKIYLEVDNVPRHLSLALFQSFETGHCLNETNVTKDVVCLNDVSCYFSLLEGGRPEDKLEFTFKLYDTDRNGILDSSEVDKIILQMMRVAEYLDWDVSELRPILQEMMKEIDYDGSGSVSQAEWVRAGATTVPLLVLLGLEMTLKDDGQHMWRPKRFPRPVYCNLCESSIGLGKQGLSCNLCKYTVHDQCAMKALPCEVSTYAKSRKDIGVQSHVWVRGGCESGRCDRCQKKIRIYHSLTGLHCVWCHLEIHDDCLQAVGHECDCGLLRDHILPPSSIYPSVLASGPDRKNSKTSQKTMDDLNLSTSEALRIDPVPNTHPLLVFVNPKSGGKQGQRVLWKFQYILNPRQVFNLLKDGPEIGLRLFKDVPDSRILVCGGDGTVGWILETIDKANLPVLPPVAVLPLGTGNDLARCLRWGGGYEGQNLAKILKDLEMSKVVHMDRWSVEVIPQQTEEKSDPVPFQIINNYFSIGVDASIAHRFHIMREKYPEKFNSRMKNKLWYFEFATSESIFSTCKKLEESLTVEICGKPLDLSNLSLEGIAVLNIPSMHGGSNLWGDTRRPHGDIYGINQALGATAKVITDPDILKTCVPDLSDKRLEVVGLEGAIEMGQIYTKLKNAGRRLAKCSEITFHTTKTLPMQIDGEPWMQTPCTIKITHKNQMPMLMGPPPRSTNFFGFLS

IC50, < 300 nM:
Cn1c(=O)c(=O)n(C2CCN(Cc3ccc(OC(F)(F)F)c(Cl)c3)CC2)c2ncc(Cl)cc21 [US20240067645, Example 43]
Cn1c(=O)c(=O)n(C2CCN(Cc3cccc(Cl)c3)CC2)c2ncc(Cl)cc21 [US20240067645, Example 27]
Cn1c(=O)c(=O)n(C2CCN(Cc3ccc(OC(F)(F)F)cc3)CC2)c2ncc(Br)cc21 [US20240067645, Example 34]
Cn1c(=O)c(=O)n(C2CCN(Cc3ccc(F)c(Cl)c3)CC2)c2ncc(Cl)cc21 [US20240067645, Example 42]
Cn1c(=O)c(=O)n(C2CCN(Cc3cccc4c(Cl)cccc34)CC2)c2ncc(Cl)cc21 [US20240067645, Example 35]
